What was measured:
Type in all cases: functional, cell-based
MCF7 = experiment: In vitro inhibition of estrogen receptor positive MCF-7 human breast cancer cell proliferation
FHC = experiment: In vitro inhibition of FHC normal human colon cell proliferation
MDA-MB-231 = experiment: In vitro inhibition of estrogen receptor negative MDA-MB-231 human breast cancer cell proliferation
HL-60 = experiment: In vitro inhibition of HL-60 human promyelocytic leukemia cell proliferation
HT-29 = experiment: In vitro inhibition of the HT-29 transformed human colon cell proliferation

Row | IC50 (MCF7) [nM] | IC50 (MDA-MB-231) [nM] | IC50 (HL-60) [nM] | IC50 (HT-29) [nM] | Structure (SMILES) | IC50 (FHC) [nM]
1 | 3000 | 4500 | 2000 | 2000 | CCCCCCCCCCCCCCCCCCOCC(CCP(=O)([O-])OCC[N+](C)(C)C)n1ccnc1 (configuration not stated) | 5000
2 | 3000 | 6000 | 3000 |  | CCCCCCCCCCCCCCCCCCOCC(CCP(=O)([O-])OCC[N+](C)(C)C)n1cncn1 (configuration not stated) | 
3 |  | 5000 | 2000 | 2000 | CCCCCCCCCCCCCCCCCCOCC(COP(=O)([O-])OCC[N+](C)(C)C)OC (configuration not stated) [EDELFOSINE] | 45000

Source: ChEMBL document CHEMBL1153650, “Imidazole and triazole substituted ether phospholipids: potent antitumor agents” (Bioorg Med Chem Lett, 1997)
